Laboratory results taken from patent US8933011B2, “Treatment of preterm labor with toll-like receptor 9 antagonists” (The Provost, Fellows and Scholars of the College of the …, priority 2008, dated 2015).
Entries after “also recorded” stand apart in the source; their conditions may differ.

Target: T1, Toll-like Receptor 9 (Homo sapiens, UniProt Q9NR96)
T1 construct: endogenous in cells; host or cells: Namalwa cells
T1 sequence (Q9NR96 26-1032): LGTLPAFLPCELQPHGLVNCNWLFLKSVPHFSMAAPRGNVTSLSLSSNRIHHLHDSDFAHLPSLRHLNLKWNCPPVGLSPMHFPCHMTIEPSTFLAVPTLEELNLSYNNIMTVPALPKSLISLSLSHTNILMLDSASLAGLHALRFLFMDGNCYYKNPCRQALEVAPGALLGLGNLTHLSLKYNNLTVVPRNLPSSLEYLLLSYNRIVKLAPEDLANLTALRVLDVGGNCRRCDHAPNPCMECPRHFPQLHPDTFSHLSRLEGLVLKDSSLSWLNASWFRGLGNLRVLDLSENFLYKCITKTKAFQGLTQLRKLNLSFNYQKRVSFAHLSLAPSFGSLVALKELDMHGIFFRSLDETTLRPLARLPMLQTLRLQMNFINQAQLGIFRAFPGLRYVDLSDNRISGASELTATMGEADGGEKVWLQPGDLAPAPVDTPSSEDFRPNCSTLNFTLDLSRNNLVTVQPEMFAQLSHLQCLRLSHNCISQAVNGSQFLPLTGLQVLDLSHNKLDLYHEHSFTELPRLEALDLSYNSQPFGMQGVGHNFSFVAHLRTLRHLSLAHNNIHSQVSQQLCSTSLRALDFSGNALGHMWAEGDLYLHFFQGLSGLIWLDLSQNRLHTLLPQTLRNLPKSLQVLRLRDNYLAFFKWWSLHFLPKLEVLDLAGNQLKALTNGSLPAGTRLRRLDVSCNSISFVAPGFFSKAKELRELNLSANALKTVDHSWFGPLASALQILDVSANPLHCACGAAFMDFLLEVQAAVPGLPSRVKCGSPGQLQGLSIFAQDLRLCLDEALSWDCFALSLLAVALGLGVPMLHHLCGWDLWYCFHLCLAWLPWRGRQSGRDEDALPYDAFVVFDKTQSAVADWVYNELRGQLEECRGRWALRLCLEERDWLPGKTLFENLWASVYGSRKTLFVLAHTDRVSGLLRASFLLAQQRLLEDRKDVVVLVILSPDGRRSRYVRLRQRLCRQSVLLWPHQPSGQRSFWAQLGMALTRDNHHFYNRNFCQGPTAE
Test: Inhibition of fetal DNA induced I-kappa-B degradation in Namalwa cells by TLR9 inhibitors
Type: cell-based
Details: Namalwa cells pre-treated at 75 μM, then fetal DNA 3.0 μg/ml
Method: Inhibition of Toll-like Receptor 9 was carried out using the Toll-like Receptor 9 antagonist cholorquine and a synthetic inhibitory oligodinucleotide (TTAGGG) which was obtained from InvivoGen. […] The recommended concentration from package inserts was to use a 10-100 microM concentration. […] The same fetal DNA (3.0 μg/ml) was then used to stimulate cells over time in minutes as described above.
Namalwa cells (2.0×10^7 cells/ml) were also incubated with synthetic inhibitory TLR-9 oligonucleotide (ODN+) at an 8:1 ratio of oligodinucleotide (ODN) to ligand. The package insert recommended a 1-10:1 ratio of inhibitory oligodinucleotide (ODN) to stimulatory oligodinucleotide (ODN). […] This was followed by stimulation with the same purchased fetal DNA at 3.0 μg/ml using the method described hereinbefore.
In FIGS. 5A and 6A Namalwa cells (2.0×10^7 cells/ml) were incubated with the inhibitory TLR-9 oligonucleotide (ODN+) in an 8:1 ratio of ODN to ligand. This was followed by stimulation with fetal DNA at a concentration of 3.0 μg/ml.
In FIGS. 5B and 6B, the TLR9 antagonist cholorquine was used to pre-treat Namalwa cells at 2.0×10^7 cells/ml at a concentration of 75 μM. Fetal DNA (3.0 microg/ml) was then used to stimulate cells over time in minutes.

CCN(CC)CCCC(C)Nc1ccnc2cc(Cl)ccc12 (centres unmarked) [chloroquine, N′-(7-chloroquinolin-4-yl)-N,N-diethyl-pentane-1,4-diamine]
inhibition of fetal DNA induced I-kappa-B degradation: can also inhibit this response; also recorded: Induction of I-kappa-B degradation was inhibited; also recorded: blocked the effect of fetal DNA on I-kappaB degradation
inhibition of fetal DNA induced I-kappa-B degradation (listed as Chloroquine): blocked I-kappa-B degradation; also recorded: blocked 1-kappa-B degradation
